The species named for assay [1] is Rattus norvegicus. The experiment in a line: Percent of intrinsic activity for vasorelaxant effect. It is filed as functional.
The species named for assay [2] is Rattus norvegicus. The experiment in a line: Negative logarithm of the molar concentration required to relax rat aorta precontracted with 30 mM KCl by 50% of IA. It is filed as functional.

Each structure is given as a SMILES string.

Compound `CC1(C)Oc2ccc(C#N)cc2[C@@H](N2CCCC2=O)[C@@H]1O` [CROMAKALIM] came in with an IA in the assay listed under Rattus norvegicus [1] of 74.7%. Moreover, in the assay filed under Rattus norvegicus [2], a half-maximal effect (EC50) was put at 170 nM.
`CCc1ccc2c(c1)C(/C(S)=N\C)=CC(C)(C)O2` showed an IA in the assay filed under Rattus norvegicus [1] of 78.7%. In the assay filed under Rattus norvegicus [2], the EC50 is 324 nM.
Regarding `C/N=C(/S)C1=CC(C)(C)Oc2ccc(S(=O)(=O)c3ccccc3)cc21`, the IA in the assay filed under Rattus norvegicus [1] came to 73.7%. In the assay filed under Rattus norvegicus [2], this compound showed an EC50 of 19.1 nM.
`CNC(=S)C1=CC(C)(C)Oc2ccc(OC)cc21` registered an IA in the assay filed under Rattus norvegicus [1] of 61.5%. This compound also gave an EC50 in the assay listed under Rattus norvegicus [2] of 417 nM.
In the case of `C/N=C(/S)C1=CC(C)(C)Oc2ccc(Cl)cc21`, in the assay filed under Rattus norvegicus [1], the IA was determined as 73.1%. The compound further had an EC50 in the assay listed under Rattus norvegicus [2] of 37.2 nM.
With `C/N=C(/S)C1=CC(C)(C)Oc2ccc(OC(C)=O)cc21`, the IA in the assay listed under Rattus norvegicus [1] is 76.1%. The compound also gave an EC50 in the assay filed under Rattus norvegicus [2] of 95.5 nM.
For `C/N=C(/S)C1=CC(C)(C)Oc2ccc(S(C)(=O)=O)cc21` the same measures were 69.8% and 457 nM.
For `C/N=C(/S)C1=CC(C)(C)Oc2ccc(OC(F)(F)F)cc21` the same measures were 76.1% and 4.07 nM.
For `C/N=C(/S)C1=CC(C)(C)Oc2ccc(C(F)(F)F)cc21` the same measures were 73% and 2.04 nM.
Turning to `C/N=C(/S)C1=CC(C)(C)Oc2ccc([N+](=O)[O-])cc21`, in the assay filed under Rattus norvegicus [1], the IA stood at 63.5%. Further, the midpoint of the response in the assay filed under Rattus norvegicus [2], the EC50, lay at 1.35 nM.
`C/N=C(/S)C1=CC(C)(C)Oc2ccccc21` displayed an IA in the assay listed under Rattus norvegicus [1] of 89.3%. In addition, the response in the assay listed under Rattus norvegicus [2] was half-maximal at 4270 nM (EC50).
Take `C/N=C(/S)C1=CC(C)(C)Oc2ccc(C#N)cc21`: in the assay listed under Rattus norvegicus [1], the IA is 89%. The midpoint of the response in the assay filed under Rattus norvegicus [2], the EC50, lay at 24.5 nM.
For `C/N=C(/S)C1=CC(C)(C)Oc2ccc(C(F)(F)C(F)(F)F)cc21` the same measures were 55.4% and 12.6 nM.
Take `C/N=C(/S)C1=CC(C)(C)Oc2ccc(Br)cc21`: in the assay filed under Rattus norvegicus [1], the IA amounted to 67.5%. The EC50 in the assay listed under Rattus norvegicus [2] is 9.33 nM.

The EC50 is the concentration needed to bring the measured effect to its halfway point. Read a low EC50 as greater potency.

Source of the values: ChEMBL document CHEMBL1126996, “Structure-activity relationships of 6-substituted benzopyran-4-carbothioamide potassium channel openers” (Bioorg Med Chem Lett, 1993).
